Converted amounts (≈) assume the structure as drawn. Like-named read-outs stand apart in the source and are kept apart here.
Columns and labels:
Format in all cases: cell-based
[1] = system: S. aureus Smith; assay: Antibacterial spectra, MIC; details: Staphylococcus aureus
[2] = system: F. varium KYA 8501; assay: Antibacterial spectra, MIC; details: Fusobacterium varium, KYA8501
[3] = system: Salmonella enteritidis IID 604; assay: Antibacterial spectra, MIC; details: Salmonella enterica
[4] = system: Klebsiella pneumoniae KY(GN)6445; assay: Antibacterial spectra, MIC
[5] = system: E. coli ATCC 10536; assay: Antibacterial spectra, MIC; details: Escherichia coli, ATCC10536
[6] = system: K. pneumoniae 1-220S; assay: Antibacterial spectra, MIC; details: Klebsiella pneumoniae, 1220S
[7] = system: Serratia marcescens IID 618; assay: Antibacterial spectra, MIC; details: IID618
[8] = system: Staphylococcus aureus 209 P; assay: Antibacterial spectra, MIC
[9] = system: P. mirabilis IID 994; assay: Antibacterial spectra, MIC; details: Proteus mirabilis, IID994
[10] = system: Clostridium difficile I-E; assay: Antibacterial spectra, MIC; details: Clostridioides difficile
[11] = system: Bacilus subtilis PCI 219; assay: Antibacterial spectra, MIC; details: Bacillus subtilis, PCI219
[12] = system: P. aeruginosa IID 1210; assay: Antibacterial spectra, MIC; details: Pseudomonas aeruginosa, IID1210
[13] = system: Citrobacter freundii IID 976; assay: Antibacterial spectra, MIC; details: IID976
[14] = system: S. aureus IID 670 (Terajima); assay: Antibacterial spectra, MIC; details: Staphylococcus aureus, IID670
[15] = system: B. distasonis 8503; assay: Antibacterial spectra, MIC; details: Parabacteroides distasonis
[16] = system: S. pyogenes IID 692; assay: Antibacterial spectra, MIC; details: Streptococcus pyogenes, IID692
[17] = system: P. maltophilia GIFU 2491; assay: Antibacterial spectra, MIC; details: Stenotrophomonas maltophilia, GIFU2491
[18] = system: Fusobacterium mortiferum 4249; assay: Antibacterial spectra, MIC
[19] = system: Bacteroides fragilis GM 7000; assay: Antibacterial spectra, MIC; details: GM7000
[20] = system: Pst. micros UPI 5464-1; assay: Antibacterial spectra, MIC; details: Parvimonas micra, UPI54641
[21] = system: P. aeruginosa IFO 12689; assay: Antibacterial spectra, MIC; details: Pseudomonas aeruginosa, IFO12689
[22] = system: Pseudomonas aeruginosa V-1; assay: Antibacterial spectra, MIC; details: V1
[23] = system: Yersinia enterocolitica IID 981; assay: Antibacterial spectra, MIC; details: IID981
[24] = system: Enterobacter cloacae IID 977; assay: Antibacterial spectra, MIC; details: IID977
[25] = system: Peptococcus magnus KY 017; assay: Antibacterial spectra, MIC; details: Finegoldia magna, KY017
[26] = system: Alcaligenes faecalis 0114002; assay: Antibacterial spectra, MIC
[27] = system: B. vulgatus KYA 29327; assay: Antibacterial spectra, MIC; details: Phocaeicola vulgatus, KYA29327
[28] = system: Veillonella parvula KYA 10790; assay: Antibacterial spectra, MIC; details: KYA10790
[29] = system: Morganella morganii IID 602; assay: Antibacterial spectra, MIC; details: IID602
[30] = system: C. ramosum; assay: Antibacterial spectra, MIC; details: Thomasclavelia ramosa
[31] = system: Eubacterium lentum GAI 5242; assay: Antibacterial spectra, MIC; details: Eggerthella lenta, GAI5242
[32] = system: B. thetaiotaomicron (0661); assay: Antibacterial spectra, MIC; details: Bacteroides thetaiotaomicron
[33] = system: Peptostreptococcus anaerobius KYA 27337; assay: Antibacterial spectra, MIC; details: KYA27337
[34] = system: C. perfringens KYA 13123; assay: microbe, parasite or virus in culture; details: Clostridium perfringens, KYA13123
[35] = system: Proteus vulgaris IFO 3167; assay: Antibacterial spectra, MIC; details: IFO3167, 10^6 cells/ml, Gram -
Experimental: (§1) The antibacterial test was carried out according to the method designated by Japan Society of Chemotherapy.

[36] = system: E. coli ML 4707; assay: Antibacterial spectra, MIC; details: Escherichia coli, ML4707; 10^6 cells/ml; Gram -
Experimental: as §1

[37] = system: Shigella sonnei IID 969; assay: Antibacterial spectra, MIC; details: IID969, 10^6 cells/ml, Gram -
Experimental: as §1

[38] = system: Streptococcus pyogenes (S-8); assay: Antibacterial spectra, MIC; details: 10^6 cells/ml, Gram +
Experimental: as §1

[39] = system: E. faecalis IID 682; assay: Antibacterial spectra, MIC; details: Enterococcus faecalis, IID682; 10^6 cells/ml; Gram +
Experimental: as §1

[40] = system: Escherichia coli NIHJ JC-2; assay: Antibacterial spectra, MIC; details: NIHJJC2
[41] = system: B. fragilis 25285; assay: Antibacterial spectra, MIC; details: Bacteroides fragilis
[42] = system: S. pneumoniae IID 552; assay: Antibacterial spectra, MIC; details: Streptococcus pneumoniae, IID552
[43] = system: S. epidermidis IID 866; assay: Antibacterial spectra, MIC; details: Staphylococcus epidermidis, IID866
[44] = system: P. cepacia GIFU 518; assay: Antibacterial spectra, MIC; details: Burkholderia cepacia, GIFU518
[45] = system: Propionibacterium acens 11828; assay: Antibacterial spectra, MIC
[46] = system: Acinetobacter anitratus IID 876; assay: Antibacterial spectra, MIC; details: Acinetobacter calcoaceticus, IID876
[47] = system: F. necrophorum S-45; assay: Antibacterial spectra, MIC; details: Fusobacterium necrophorum, S45
[48] = system: B. fragilis 0558; assay: Antibacterial spectra, MIC; details: Bacteroides fragilis

COc1c(N2C[C@@H](C)[C@H](N)C2)c(F)cc2c(=O)c(C(=O)O)cn(C3CC3)c12 (relative stereo) [Exp. 6, 7-(trans-3-amino-4-methyl-1-pyrrolidinyl)-1-cyclopropyl-6-fluoro-1,4-dihydro-8-methoxy-4-oxo-3-quinolinecarboxylic acid]
MIC [1]: 0.05 µg/mL (≈ 0.133 µM) | MIC ([2]; 10^6 cells/ml, Gram -, read-out: MIC): 1.56 µg/mL (≈ 4.16 µM) | MIC [3]: 0.05 µg/mL (≈ 0.133 µM) | MIC [4]: 0.05 µg/mL (≈ 0.133 µM) | MIC [5]: 0.0125 µg/mL (≈ 0.0333 µM) | MIC [6]: 0.05 µg/mL (≈ 0.133 µM) | MIC [7]: 0.05 µg/mL (≈ 0.133 µM) | MIC [8]: 0.025 µg/mL (≈ 0.0666 µM) | MIC [9]: 0.05 µg/mL (≈ 0.133 µM) | MIC [10]: 0.78 µg/mL (≈ 2.08 µM) | MIC [11]: 0.0125 µg/mL (≈ 0.0333 µM) | MIC [12]: 0.78 µg/mL (≈ 2.08 µM) | MIC [13]: 0.05 µg/mL (≈ 0.133 µM) | MIC [14]: 0.05 µg/mL (≈ 0.133 µM) | MIC [15]: 0.39 µg/mL (≈ 1.04 µM) | MIC [16]: 0.1 µg/mL (≈ 0.266 µM) | MIC [17]: 0.05 µg/mL (≈ 0.133 µM) | MIC [18]: 0.2 µg/mL (≈ 0.533 µM) | MIC [19]: 0.1 µg/mL (≈ 0.266 µM) | MIC [20]: 0.2 µg/mL (≈ 0.533 µM) | MIC [21]: 0.78 µg/mL (≈ 2.08 µM) | MIC [22]: 0.78 µg/mL (≈ 2.08 µM) | MIC [23]: 0.05 µg/mL (≈ 0.133 µM) | MIC [24]: 0.05 µg/mL (≈ 0.133 µM) | MIC [25]: ≤ 0.05 µg/mL | MIC [26]: 0.2 µg/mL (≈ 0.533 µM) | MIC [27]: 0.2 µg/mL (≈ 0.533 µM) | MIC [28]: 0.2 µg/mL (≈ 0.533 µM) | MIC [29]: 0.1 µg/mL (≈ 0.266 µM) | MIC [30]: 0.78 µg/mL (≈ 2.08 µM) | MIC [31]: ≤ 0.05 µg/mL | MIC [32]: 0.2 µg/mL (≈ 0.533 µM) | MIC [33]: 0.1 µg/mL (≈ 0.266 µM) | MIC [34]: 0.2 µg/mL (≈ 0.533 µM) | MIC [35]: 0.05 µg/mL (≈ 0.133 µM) | MIC [36]: 0.0125 µg/mL (≈ 0.0333 µM) | MIC [37]: 0.0125 µg/mL (≈ 0.0333 µM) | MIC [38]: 0.05 µg/mL | MIC [39]: 0.1 µg/mL | MIC [40]: 0.0125 µg/mL (≈ 0.0333 µM) | MIC [41]: 0.1 µg/mL (≈ 0.266 µM) | MIC [42]: 0.1 µg/mL (≈ 0.266 µM) | MIC [43]: 0.1 µg/mL (≈ 0.266 µM) | MIC [44]: 0.39 µg/mL (≈ 1.04 µM) | MIC [45]: 3.13 µg/mL (≈ 8.34 µM) | MIC [46]: 0.05 µg/mL (≈ 0.133 µM) | MIC [47]: 0.2 µg/mL (≈ 0.533 µM) | MIC [48]: 0.1 µg/mL (≈ 0.266 µM)

COc1c(N2CCC(CN)C2)c(F)cc2c(=O)c(C(=O)O)cn(C3CC3)c12 (centres unmarked) [Exp. 7, 7-(3-aminomethyl-1-pyrrolidinyl)-1-cyclopropyl-6-fluoro-1,4-dihydro-8-methoxy-4-oxo-3-quinolinecarboxylic acid]
MIC [1]: 0.05 µg/mL (≈ 0.133 µM) | MIC [2]: 0.78 µg/mL (≈ 2.08 µM) | MIC [3]: 0.05 µg/mL (≈ 0.133 µM) | MIC [4]: 0.05 µg/mL (≈ 0.133 µM) | MIC [5]: 0.05 µg/mL (≈ 0.133 µM) | MIC [6]: 0.1 µg/mL (≈ 0.266 µM) | MIC [7]: 0.2 µg/mL (≈ 0.533 µM) | MIC [8]: 0.025 µg/mL (≈ 0.0666 µM) | MIC [9]: 0.05 µg/mL (≈ 0.133 µM) | MIC [10]: 0.39 µg/mL (≈ 1.04 µM) | MIC [11]: 0.025 µg/mL (≈ 0.0666 µM) | MIC [12]: 0.78 µg/mL (≈ 2.08 µM) | MIC [13]: 0.05 µg/mL (≈ 0.133 µM) | MIC [14]: 0.025 µg/mL (≈ 0.0666 µM) | MIC [15]: 0.78 µg/mL (≈ 2.08 µM) | MIC [17]: 0.2 µg/mL (≈ 0.533 µM) | MIC [18]: 0.2 µg/mL (≈ 0.533 µM) | MIC [19]: 0.39 µg/mL (≈ 1.04 µM) | MIC [20]: 0.1 µg/mL (≈ 0.266 µM) | MIC [21]: 0.78 µg/mL (≈ 2.08 µM) | MIC [22]: 0.2 µg/mL (≈ 0.533 µM) | MIC [23]: 0.1 µg/mL (≈ 0.266 µM) | MIC [24]: 0.1 µg/mL (≈ 0.266 µM) | MIC [25]: 0.05 µg/mL (≈ 0.133 µM) | MIC [26]: 0.39 µg/mL (≈ 1.04 µM) | MIC [27]: 0.39 µg/mL (≈ 1.04 µM) | MIC [28]: 0.1 µg/mL (≈ 0.266 µM) | MIC [29]: 0.2 µg/mL (≈ 0.533 µM) | MIC [30]: 0.78 µg/mL (≈ 2.08 µM) | MIC [31]: 0.39 µg/mL (≈ 1.04 µM) | MIC [32]: 0.39 µg/mL (≈ 1.04 µM) | MIC [33]: 0.05 µg/mL (≈ 0.133 µM) | MIC [34]: 0.2 µg/mL (≈ 0.533 µM) | MIC [35]: 0.05 µg/mL (≈ 0.133 µM) | MIC [36]: 0.05 µg/mL (≈ 0.133 µM) | MIC [37]: 0.05 µg/mL (≈ 0.133 µM) | MIC [40]: 0.025 µg/mL (≈ 0.0666 µM) | MIC [41]: 0.2 µg/mL (≈ 0.533 µM) | MIC [43]: 0.05 µg/mL (≈ 0.133 µM) | MIC [44]: 0.78 µg/mL (≈ 2.08 µM) | MIC [45]: 0.39 µg/mL (≈ 1.04 µM) | MIC [46]: 0.05 µg/mL (≈ 0.133 µM) | MIC [47]: 0.2 µg/mL (≈ 0.533 µM) | MIC [48]: 0.2 µg/mL (≈ 0.533 µM)

— patent US5043450A, “8-alkoxyquinolonecarboxylic acid and salts thereof” (priority 1986, dated 1991)
